Paper PMC4128046, “Effect of a toggle switch mutation in TM6 of the human adenosine A3 receptor on Gi protein-dependent signalling and Gi-independent receptor internalization” (British Journal of Pharmacology, 2014)

What was measured:
[1] = biological target: T1, A3 W243F-YFP (Homo sapiens, UniProt P0DMS8, W243F); assay: [3H]-cAMP accumulation assay, A3 W243F-YFP; format: cell-based; conditions: for inhibition of FSK-stimulated [3H]-cAMP accumulation after 5 h agonist stimulation / Emax: A3 W243F-YFP cells; for inhibition of FSK-stimulated [3H]-cAMP accumulation after 5 h agonist stimulation: 5 h stimulation, compared with 1 h; for Emax: read-out: Maximum response (% inhibition of 3 μM FSK), cAMP accumulation assay, 1 h stimulation
T1 construct: Full length A3 W243F-YFP was excised and subcloned into a native pcDNA3.1 vector; expressed in transfected cells
T1 sequence (P0DMS8 1-318 W243F): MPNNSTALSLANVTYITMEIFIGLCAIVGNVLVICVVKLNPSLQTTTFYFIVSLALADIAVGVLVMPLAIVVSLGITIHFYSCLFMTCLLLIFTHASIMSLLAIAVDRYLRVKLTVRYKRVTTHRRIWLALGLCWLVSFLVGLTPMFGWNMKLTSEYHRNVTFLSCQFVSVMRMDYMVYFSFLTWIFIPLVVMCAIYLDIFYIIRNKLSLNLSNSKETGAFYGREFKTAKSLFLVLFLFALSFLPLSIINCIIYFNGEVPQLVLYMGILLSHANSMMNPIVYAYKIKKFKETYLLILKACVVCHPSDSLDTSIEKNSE
Protocol: On the day of analysis, cells were labelled with [^3H]-adenine (2 μCi·mL^−1) in a total volume of 600 μL per well for 2 h at 37°C/5% CO2 in normal growth medium. After 2 h, the [^3H]-adenine-containing medium was removed; cells washed once in serum-free medium and fresh serum-free medium, containing 10 μM rolipram, added. […] […] The assay was terminated by the addition of 50 μL concentrated HCl to each well. The levels of [^3H]-cAMP incorporated were measured by sequential Dowex and alumina chromatography and the efficiency of each column was determined by the recovery of [^14C]-cAMP as described by Donaldson et al. ([1988]).
A basal and FSK control was included in each separate concentration-response CRE-SPAP gene transcription assay and cAMP accumulation assay to allow the responses in each cell line to be expressed as an inhibition of FSK-stimulated SPAP production.

[2] = biological target: T2, SNAP-A3 (Homo sapiens, UniProt P0DMS8); assay: Confocal imaging of SNAP-tagged receptor internalization, SNAP-A3; format: cell-based; conditions: SNAP-A3 transiently expressed in CHO CRE-SPAP cells, BG-AF488 label, 10 μM agonist
T2 construct: the methionine start signal was removed from cDNA encoding the full length A3; expressed in transfected cells; host or cells: CHO CRE-SPAP, transient (Fugene HD)
T2 sequence (P0DMS8 2-318 limits assumed): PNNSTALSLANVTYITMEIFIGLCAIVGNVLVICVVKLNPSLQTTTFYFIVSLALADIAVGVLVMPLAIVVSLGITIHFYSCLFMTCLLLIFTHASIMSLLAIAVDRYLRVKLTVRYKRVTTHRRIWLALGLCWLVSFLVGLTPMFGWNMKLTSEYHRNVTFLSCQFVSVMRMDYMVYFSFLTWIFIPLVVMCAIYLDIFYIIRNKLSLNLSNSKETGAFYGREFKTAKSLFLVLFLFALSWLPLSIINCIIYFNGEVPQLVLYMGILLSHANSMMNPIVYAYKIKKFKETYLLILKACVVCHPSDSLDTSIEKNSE
Protocol: CHO-K1 cells stably expressing a cAMP response element-secreted placental alkaline phosphatase (CRE-SPAP) reporter gene (CHO CRE-SPAP) under hygromycin selectivity and CHO-K1 cells stably expressing β-arrestin2-vYnL (CHO β-arrestin2-vYnL, a gift from Dr. N. Holliday, University of Nottingham, Nottingham, UK) were maintained in DMEM/F12 medium containing 10% FCS and 2 mM L-glutamine at 37°C in a humidified atmosphere of air/CO2 (19:1). […] Cell lines were initially screened for YFP or bimolecular fluorescence complementation (BiFC) fluorescence and CRE-SPAP cells lines were subsequently tested in the CRE-SPAP gene transcription assay. […]
Live-cell BiFC imaging was performed on A3-vYc/β-arrestin2-vYnL and A3 W243F-vYc/β-arrestin2-vYnL cells grown in Nunc Labtek 8-well plates, and images obtained using a Zeiss 710 confocal microscope (Carl Zeiss GmbH, Jena, Germany) fitted with a 63× plan-Apochromat NA1.4 Ph3 oil-immersion objective. […] For both YFP, BiFC and BG-AF488 label, a 488 nm argon laser was used to excite the fluorophore and emission was detected using a BP505-530 filter. […] Images of A3-YFP and A3 W243F-YFP cells were taken with same pinhole diameter, laser power, gain and offset to allow comparison of YFP fluorescence. To obtain fluorescence intensity values, a region of interest was drawn around the plasma membrane of 10 cells per image in Zeiss AIM 4.2 software (Carl Zeiss GmbH).

EC50 ([1]; read-out: pEC50 (cAMP accumulation assay) (converted))	Structure (SMILES)	inhibition of FSK-stimulated [3H]-cAMP accumulation after 5 h agonist stimulation [1]	Emax [1]	internalization of SNAP-tagged receptor seen in confocal images [2]
9.55 nM	CCCCC#Cc1nc(NC)c2ncn([C@@H]3O[C@H](CO)[C@@H](O)[C@H]3O)c2n1 [HEMADO, 2-(1-hexynyl)-N-methyladenosine]	very little inhibition	43.2 ± 4.3%	clear punctate granules
	CCNC(=O)[C@H]1O[C@@H](n2cnc3c(N)ncnc32)[C@H](O)[C@@H]1O [NECA, 5-(N-ethylcarboxamido)adenosine]	reduced the maximal inhibition	49.7 ± 2%	clear punctate granules
